Experimental data reported in publication PMC11207073, “Protein Tyrosine Phosphatase 1B Inhibitors of Pueraria lobata Based on the Spectrum–Effect Relationship by Q-Marker Selection” (Molecules, 2024).

Molecular target: T1, Protein tyrosine phosphatase 1B (PTP1B) (Homo sapiens, UniProt P18031)
T1 construct: gene PTPN1
T1 sequence (P18031 1-435): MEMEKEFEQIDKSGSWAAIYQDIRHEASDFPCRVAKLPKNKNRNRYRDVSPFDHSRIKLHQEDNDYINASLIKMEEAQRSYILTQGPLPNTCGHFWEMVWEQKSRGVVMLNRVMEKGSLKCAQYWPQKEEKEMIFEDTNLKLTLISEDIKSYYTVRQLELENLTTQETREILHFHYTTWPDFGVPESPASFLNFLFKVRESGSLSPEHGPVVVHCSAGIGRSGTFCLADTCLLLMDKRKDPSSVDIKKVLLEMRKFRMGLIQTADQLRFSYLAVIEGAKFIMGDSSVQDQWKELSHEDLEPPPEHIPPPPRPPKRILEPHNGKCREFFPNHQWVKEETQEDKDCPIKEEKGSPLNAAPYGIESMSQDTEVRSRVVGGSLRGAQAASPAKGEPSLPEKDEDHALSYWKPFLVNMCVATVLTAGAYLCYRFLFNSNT
Experiment: pNPP phosphatase assay with commercial PTP1B, absorbance at […] nm
Type: biochemical

`COc1cc2c(=O)c(-c3ccc(O)cc3)coc2cc1O[C@@H]1O[C@H](CO)[C@@H](O)[C@H](O)[C@H]1O` (single isomer, unassigned) [peak 9, glycitin] gave an IC50 of 23.7 µM.
`O=c1c(-c2ccc(O)cc2)coc2cc(O[C@@H]3O[C@H](CO)[C@@H](O)[C@H](O)[C@H]3O)cc(O)c12` (single isomer, unassigned) [peak 11, genistin] showed an IC50 of 38.1 µM.
Molecule `COc1ccc(-c2coc3c([C@@H]4O[C@H](CO)[C@@H](O)[C@H](O)[C@H]4O)c(O)ccc3c2=O)cc1` (single isomer, unassigned) [peak 12, 4′-methoxypuerarin] has an IC50 of 21.7 µM.
